Data on two molecules can be found in paper PMC12006963, “Application of Deuterium in an M1 Positive Allosteric Modulator Back-Up Program: The Discovery of VU6045422” (ACS Chemical Neuroscience, 2025).

The target of one series is CYP 3A4 (Homo sapiens, UniProt P08684). The arrangement: method as in PMID 39660766. To be noted: in words; cited from earlier work.
Series [1] deals with Transporter, Dopamine (DAT) (Homo sapiens, UniProt Q01959). As to the kind of experiment: Eurofins radioligand binding.
A further series deals with Glutamate, Kainate. In words: Eurofins radioligand binding. The arrangement: species or system Rat.
In the next series the test system is Imidazoline I2, Central. In words: Eurofins radioligand binding. More on the design: species or system Rat.
A further series concerns the target Serotonin (5-HT1A) (Homo sapiens, UniProt P08908). In words: Eurofins radioligand binding.
The next series deals with Neuropeptide Y Y2 (Homo sapiens, UniProt P49146). In words: Eurofins radioligand binding.
Sequence of Neuropeptide Y Y2 (P49146 whole entry): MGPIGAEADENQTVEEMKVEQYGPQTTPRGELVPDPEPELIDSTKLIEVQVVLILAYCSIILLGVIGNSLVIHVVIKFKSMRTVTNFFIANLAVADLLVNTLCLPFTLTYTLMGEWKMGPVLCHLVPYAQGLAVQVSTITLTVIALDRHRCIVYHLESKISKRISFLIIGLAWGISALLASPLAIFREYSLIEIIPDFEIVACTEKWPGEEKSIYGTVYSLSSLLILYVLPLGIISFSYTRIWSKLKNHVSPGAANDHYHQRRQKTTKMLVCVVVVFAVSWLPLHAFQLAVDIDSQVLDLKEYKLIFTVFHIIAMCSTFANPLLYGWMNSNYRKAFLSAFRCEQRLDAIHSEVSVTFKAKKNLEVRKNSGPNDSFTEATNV
The target in a further series is Melatonin MT1 (Homo sapiens, UniProt P48039). In words: Eurofins radioligand binding.
Sequence of Melatonin MT1 (P48039 whole entry): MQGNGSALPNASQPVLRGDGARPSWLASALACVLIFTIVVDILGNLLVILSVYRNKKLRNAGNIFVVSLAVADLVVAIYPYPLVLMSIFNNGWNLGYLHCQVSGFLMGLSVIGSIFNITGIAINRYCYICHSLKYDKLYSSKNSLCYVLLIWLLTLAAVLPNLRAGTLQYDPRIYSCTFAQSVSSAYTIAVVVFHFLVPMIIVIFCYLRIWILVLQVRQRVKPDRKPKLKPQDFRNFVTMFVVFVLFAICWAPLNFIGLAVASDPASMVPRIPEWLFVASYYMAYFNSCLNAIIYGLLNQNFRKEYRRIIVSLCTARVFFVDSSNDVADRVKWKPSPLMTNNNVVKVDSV
In a further series the target is Histamine H3 (Homo sapiens, UniProt Q9Y5N1). As to the kind of experiment: Eurofins radioligand binding.
Series [2] is described as follows: Rat 14-day exploratory toxicology and toxicokinetic study. The settings on record: rat 14-day study, plasma. The class given is in vivo. An excerpt:
(§1) To this end, we prepared a 200 g lot of PAM 5 and performed, in parallel, a dog maximum tolerated dose (MTD) with a pharmacokinetics study and a 14-day rat exploratory toxicology and toxicokinetic study, quantifying plasma Cmax and AUC for both parent 5 and metabolite 6. […] Moreover, while exposure increased with dose, it was nonlinear. […] The series was terminated based on (1) poor and less than dose-proportional increases in systemic exposure, (2) lack of a kinetic isotope effect to diminish production of 6 in dogs and rats, and (3) strong likelihood of even higher concentrations of 6 to be present in man.

A short description of series [3]: Dog MTD with pharmacokinetics study. It is filed as in vivo. The settings on record: for AUC / Cmax: dog MTD, plasma.
Description: as §1

The target in series [4] is Epidermal Growth Factor (EGF) (Homo sapiens, UniProt P00533). In words: Eurofins radioligand binding.
For a further series, the system named is CYP. As to the kind of experiment: Time-dependent CYP inhibition. The class given is in vitro ADME. To be noted: in words.
For another series, the target named is Histamine H2 (Homo sapiens, UniProt P25021). In words: Eurofins radioligand binding.
Sequence of Histamine H2 (P25021 whole entry): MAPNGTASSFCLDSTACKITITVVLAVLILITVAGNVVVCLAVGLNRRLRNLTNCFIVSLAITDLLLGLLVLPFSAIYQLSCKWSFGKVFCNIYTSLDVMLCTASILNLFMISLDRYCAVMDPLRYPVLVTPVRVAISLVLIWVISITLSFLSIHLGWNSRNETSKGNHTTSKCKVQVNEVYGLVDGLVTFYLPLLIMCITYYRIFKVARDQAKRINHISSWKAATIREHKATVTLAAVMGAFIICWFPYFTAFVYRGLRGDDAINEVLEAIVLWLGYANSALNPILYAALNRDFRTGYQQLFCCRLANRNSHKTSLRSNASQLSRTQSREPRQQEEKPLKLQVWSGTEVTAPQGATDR
The next series deals with Adrenergic α1A (Homo sapiens, UniProt P35348). In words: Eurofins radioligand binding.
Sequence of Adrenergic α1A (P35348 whole entry): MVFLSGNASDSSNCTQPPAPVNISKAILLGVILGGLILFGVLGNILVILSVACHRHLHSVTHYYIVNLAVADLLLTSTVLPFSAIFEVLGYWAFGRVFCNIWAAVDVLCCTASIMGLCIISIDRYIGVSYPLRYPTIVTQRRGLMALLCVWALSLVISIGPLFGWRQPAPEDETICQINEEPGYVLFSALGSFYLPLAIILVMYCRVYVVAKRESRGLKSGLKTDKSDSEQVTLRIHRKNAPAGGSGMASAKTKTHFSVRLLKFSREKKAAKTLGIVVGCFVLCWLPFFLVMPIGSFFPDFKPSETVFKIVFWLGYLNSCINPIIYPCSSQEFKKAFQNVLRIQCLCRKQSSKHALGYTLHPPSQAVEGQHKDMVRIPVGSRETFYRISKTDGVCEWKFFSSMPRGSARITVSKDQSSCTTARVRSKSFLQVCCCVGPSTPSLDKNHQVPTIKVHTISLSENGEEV
The subject of a further series is Dopamine D4.2. As to the kind of experiment: Eurofins radioligand binding. More on the design: species or system Human.
The subject of another series is GABAA, Muscimol, Central. As to the kind of experiment: Eurofins radioligand binding. The arrangement: species or system Rat.
The target in series [5] is Transporter, Serotonin (SERT) (Homo sapiens, UniProt P31645). In words: Eurofins radioligand binding.
Sequence of Transporter, Serotonin (SERT) (P31645 whole entry): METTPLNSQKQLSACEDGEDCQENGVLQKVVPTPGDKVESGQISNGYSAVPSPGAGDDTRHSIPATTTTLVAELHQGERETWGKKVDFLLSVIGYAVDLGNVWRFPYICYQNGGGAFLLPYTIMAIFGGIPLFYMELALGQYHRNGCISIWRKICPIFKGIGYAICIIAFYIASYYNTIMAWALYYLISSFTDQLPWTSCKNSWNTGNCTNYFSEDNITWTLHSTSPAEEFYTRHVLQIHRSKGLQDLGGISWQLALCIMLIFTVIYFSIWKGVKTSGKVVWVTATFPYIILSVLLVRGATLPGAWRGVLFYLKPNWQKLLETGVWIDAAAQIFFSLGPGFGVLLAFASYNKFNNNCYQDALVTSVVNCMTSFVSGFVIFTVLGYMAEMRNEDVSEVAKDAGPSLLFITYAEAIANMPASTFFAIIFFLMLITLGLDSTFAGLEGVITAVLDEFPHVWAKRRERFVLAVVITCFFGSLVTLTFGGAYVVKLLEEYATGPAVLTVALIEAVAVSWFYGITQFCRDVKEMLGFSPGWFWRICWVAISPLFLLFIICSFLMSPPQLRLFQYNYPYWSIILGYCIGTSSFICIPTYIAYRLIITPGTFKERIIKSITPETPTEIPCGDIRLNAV
In the next series the target is Androgen (Testosterone) (Homo sapiens, UniProt P10275). As to the kind of experiment: Eurofins radioligand binding.
For the next series, the target named is Bradykinin B1 (Homo sapiens, UniProt P46663). As to the kind of experiment: Eurofins radioligand binding.
Sequence of Bradykinin B1 (P46663 whole entry): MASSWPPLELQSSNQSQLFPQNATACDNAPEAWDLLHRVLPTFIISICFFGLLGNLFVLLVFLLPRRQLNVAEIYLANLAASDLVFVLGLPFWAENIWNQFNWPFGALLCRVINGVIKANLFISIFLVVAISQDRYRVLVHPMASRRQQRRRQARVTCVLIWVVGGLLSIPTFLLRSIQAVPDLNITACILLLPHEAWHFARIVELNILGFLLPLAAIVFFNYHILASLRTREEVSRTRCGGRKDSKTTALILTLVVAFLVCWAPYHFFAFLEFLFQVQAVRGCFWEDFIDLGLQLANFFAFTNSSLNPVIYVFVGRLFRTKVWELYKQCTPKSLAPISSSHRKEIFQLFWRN
The subject of another series is Phorbol Ester. In words: Eurofins radioligand binding. The arrangement: species or system Mouse.
For the next series, the target named is Prostanoid EP4 (Homo sapiens, UniProt P35408). As to the kind of experiment: Eurofins radioligand binding.
Sequence of Prostanoid EP4 (P35408 whole entry): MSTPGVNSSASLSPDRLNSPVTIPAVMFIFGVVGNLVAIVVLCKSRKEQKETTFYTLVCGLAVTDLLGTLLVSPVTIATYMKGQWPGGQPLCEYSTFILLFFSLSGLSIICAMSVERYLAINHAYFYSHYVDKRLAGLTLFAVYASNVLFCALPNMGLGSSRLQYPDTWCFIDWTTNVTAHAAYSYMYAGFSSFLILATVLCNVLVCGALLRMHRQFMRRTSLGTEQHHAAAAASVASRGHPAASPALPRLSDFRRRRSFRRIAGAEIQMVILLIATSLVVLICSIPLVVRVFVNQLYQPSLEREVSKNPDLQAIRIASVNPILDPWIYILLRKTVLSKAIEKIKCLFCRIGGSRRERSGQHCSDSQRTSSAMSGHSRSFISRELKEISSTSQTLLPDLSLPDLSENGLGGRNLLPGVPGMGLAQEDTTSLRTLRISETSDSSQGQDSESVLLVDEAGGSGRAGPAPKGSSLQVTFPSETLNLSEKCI
The subject of the next series is Glutamate, NMDA, Glycine. As to the kind of experiment: Eurofins radioligand binding. The arrangement: species or system Rat.
Another series addresses Dopamine D3 (Homo sapiens, UniProt P35462). As to the kind of experiment: Eurofins radioligand binding.
Series [6] concerns the target Leukotriene, Cysteinyl CysLT1 (Homo sapiens, UniProt Q9Y271). As to the kind of experiment: Eurofins radioligand binding.
A further series addresses hERG (Homo sapiens, UniProt Q12809). As to the kind of experiment: hERG manual patch clamp. The class given is cell-based. For orientation: hERG is a cardiac potassium channel; its block is linked to QT prolongation.
A further series addresses Dopamine D1 (Homo sapiens, UniProt P21728). As to the kind of experiment: Eurofins radioligand binding.
The target in the next series is CYP 2D6 (Homo sapiens, UniProt P10635). In words: CYP isoform contribution to metabolism: 2D6. It is filed as in vitro ADME.
Sequence of CYP 2D6 (P10635 whole entry, canonical isoform): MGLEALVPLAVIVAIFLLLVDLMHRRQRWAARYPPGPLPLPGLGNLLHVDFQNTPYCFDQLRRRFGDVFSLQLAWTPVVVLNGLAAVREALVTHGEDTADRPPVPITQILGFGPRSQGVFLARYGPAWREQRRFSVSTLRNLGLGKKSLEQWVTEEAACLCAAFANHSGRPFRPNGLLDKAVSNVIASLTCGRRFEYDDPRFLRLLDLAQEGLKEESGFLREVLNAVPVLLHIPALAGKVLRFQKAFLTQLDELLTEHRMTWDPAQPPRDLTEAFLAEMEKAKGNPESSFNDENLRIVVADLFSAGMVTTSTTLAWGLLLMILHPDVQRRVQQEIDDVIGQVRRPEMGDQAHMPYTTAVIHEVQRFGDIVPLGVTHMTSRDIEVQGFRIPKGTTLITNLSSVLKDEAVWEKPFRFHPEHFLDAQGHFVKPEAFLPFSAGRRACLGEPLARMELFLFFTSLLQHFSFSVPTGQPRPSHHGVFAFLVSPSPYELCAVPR
In the next series the target is Calcium Channel N-Type (Rattus norvegicus, UniProt Q02294). As to the kind of experiment: Eurofins radioligand binding.
Another series deals with Potassium Channel [KATP] (Cricetus cricetus, UniProt Q09427). As to the kind of experiment: Eurofins radioligand binding. The arrangement: species or system Hamster.
In series [7] the target is Nicotinic Acetylcholine α3β4 (Homo sapiens, UniProt P30926+P32297). As to the kind of experiment: Eurofins radioligand binding.
The target in another series is Muscarinic M2 (Homo sapiens, UniProt P08172). In words: Eurofins radioligand binding.
For series [8], the system named is fEPSPs in layer V medial prefrontal cortex (mPFC). In words: Slice electrophysiology, long-term depression of fEPSPs. The arrangement: species or system mouse. To be noted: 10 μM; layer V recording, stimulation in layer II/III; n = 9. As for the experimental part:
While ago-PAMs induce substantial long-term depression that correlates with a lack of robust procognitive efficacy,[14],[16]−[21] […] Thus, PAM 5 maintains activity dependence of PFC function (Figure 3), and it is expected to display robust precognitive efficacy.
(A) Normalized time course of the fEPSP slope during baseline, application of 10 μM VU6045422 and washout. (B) Bar graph summarizing the averaged fEPSP slope during the last 5 min of washout (gray bar in panel (A)) compared to the baseline period (ns, p > 0.05, two-tailed paired t test, n = 9).

For a further series, the target named is Transporter, GABA (Rattus norvegicus, UniProt P23978). As to the kind of experiment: Eurofins radioligand binding.
The target of a further series is Endothelin ETA (Homo sapiens, UniProt P25101). As to the kind of experiment: Eurofins radioligand binding.

“Also recorded” adds a separate entry of the source.

Sequence of Leukotriene, Cysteinyl CysLT1 (Q9Y271 whole entry): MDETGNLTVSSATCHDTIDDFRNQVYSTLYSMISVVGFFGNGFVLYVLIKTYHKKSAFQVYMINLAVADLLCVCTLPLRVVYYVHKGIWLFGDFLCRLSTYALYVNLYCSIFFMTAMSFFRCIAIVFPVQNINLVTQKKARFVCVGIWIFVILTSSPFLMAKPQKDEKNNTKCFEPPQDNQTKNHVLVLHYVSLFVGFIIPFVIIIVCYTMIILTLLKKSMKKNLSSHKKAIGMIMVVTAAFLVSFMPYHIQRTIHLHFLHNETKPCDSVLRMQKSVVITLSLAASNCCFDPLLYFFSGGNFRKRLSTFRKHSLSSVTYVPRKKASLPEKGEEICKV
Sequence of CYP 3A4 (P08684 whole entry): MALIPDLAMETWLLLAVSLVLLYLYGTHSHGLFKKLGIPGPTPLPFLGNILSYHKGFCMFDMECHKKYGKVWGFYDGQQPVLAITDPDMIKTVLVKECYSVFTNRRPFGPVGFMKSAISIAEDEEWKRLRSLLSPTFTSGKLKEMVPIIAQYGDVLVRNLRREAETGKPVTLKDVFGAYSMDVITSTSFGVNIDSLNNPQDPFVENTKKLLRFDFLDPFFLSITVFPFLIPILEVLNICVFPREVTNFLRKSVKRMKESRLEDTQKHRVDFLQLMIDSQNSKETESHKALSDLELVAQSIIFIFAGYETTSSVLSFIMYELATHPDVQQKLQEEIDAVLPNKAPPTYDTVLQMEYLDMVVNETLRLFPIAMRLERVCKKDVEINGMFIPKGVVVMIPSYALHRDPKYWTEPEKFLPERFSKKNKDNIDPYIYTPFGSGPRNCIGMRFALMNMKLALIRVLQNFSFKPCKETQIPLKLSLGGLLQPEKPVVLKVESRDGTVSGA

Regarding `Cn1cc2c(-c3cc(F)c(CN4Cc5ncccc5C4=O)c(F)c3)cccc2n1` [compound 1], at CYP 3A4, the “CYP isoform responsible for metabolism” value is “solely metabolized by CYP 3A4”.

As usually defined, the inhibition is the change of the read-out against control, counted positive when it falls. The % Inhibition is the drop in the measured response relative to a control, in per cent. Usually AUC stands for the area under the concentration-time curve, a measure of exposure. As usually defined, the Cmax is the highest concentration seen after dosing. By IC50 is commonly meant the point on the concentration scale where inhibition reaches its midpoint. A higher IC50 goes with lower potency. Turning to `[2H]C1([2H])c2ncccc2C(=O)N1Cc1c(F)cc(-c2cccc3nn(C([2H])([2H])[2H])cc23)cc1F` [compound 5], the inhibition at 10 µM in [1] is 32%; on Serotonin (5-HT1A), -5%; at Neuropeptide Y Y2, -3%; on Melatonin MT1 it was 5%; at Histamine H3 it was 5%; in [4] it was 3%. Besides, the inhibition at 10 µM at Histamine H2 was 2%; at Adrenergic α1A, 8%; in series [5], -4%; at Androgen (Testosterone) it was 0%; on Bradykinin B1 it was 13%; at Prostanoid EP4, -3%. Besides, the inhibition at 10 µM is -1% on Dopamine D3; -9% in series [6]; -3% at Dopamine D1; -2% at Calcium Channel N-Type; 24% on Potassium Channel [KATP]; -7% in series [7]. Also, the inhibition at 10 µM is 5% at Muscarinic M2; 31% on Transporter, GABA; -4% at Endothelin ETA. Besides, the “% Inhibition at 10 µM” value in the series with Glutamate, Kainate is recorded as 13%; in the series with Imidazoline I2, Central it was 59%; with Dopamine D4.2 it was 13%; in the series on GABAA, Muscimol, Central, 0%; in the series on Phorbol Ester, 5%; in the series with Glutamate, NMDA, Glycine it was -8%. The AUC at 14 days in series [2] (day 14, 300 mg/kg PO of 5) came out at 321 µg·h/mL; in series [2] (day 14, 750 mg/kg PO of 5), 536 µg·h/mL. Besides, the Cmax at 14 days stood at 22200 ng/mL in series [2] (day 14, 300 mg/kg PO of 5); 31300 ng/mL in [2] (day 14, 750 mg/kg PO of 5); 30700 ng/mL in [2] (day 14, 1500 mg/kg PO of 5). Besides, the exposure (AUC) at 14 day in [2] (day 14, 1500 mg/kg PO of 5) is 518 µg·h/mL. Moreover, the AUC stood at 34.9 µg·h/mL in [3] (30 mg/kg PO of 5), 68 µg·h/mL in series [3] (300 mg/kg PO of 5) and 103 µg·h/mL in [3] (1000 mg/kg PO of 5). For the same molecule, the values for the Cmax in series [3] (30 mg/kg PO of 5), in [3] (300 mg/kg PO of 5) and in series [3] (1000 mg/kg PO of 5) were 2400 ng/mL, 3620 ng/mL and 5560 ng/mL, respectively. Besides, the “tolerability in dog MTD” value in [3] (dog, in vivo, po) is recorded as “well-tolerated”. Also, the “time-dependent CYP inhibition liability” value in the series with CYP is “no time-dependent CYP inhibition or CYP induction liabilities”. The molecule also came in with an IC50 at hERG of 21 µM. The “contribution of CYP 2D6 to metabolism” value at CYP 2D6 is recorded as 1.6%. In addition, the “change in fEPSPs / long-term depression” value in series [8] is recorded as “no significant changes; also recorded: did not induce a significant long-term depression”.
